Experimental data published in ChEMBL document CHEMBL3885881, “DrugMatrix”.

Species: Rattus norvegicus
Assay: DrugMatrix - Regimen: Daily Repeat
Type: toxicity, organism-based, Sprague-Dawley
Set-up: regimen Daily Repeat, gender Male, age 6-8 weeks
Settings: in vivo, sc, route subcutaneous, […]; for ABSOLUTE BASOPHIL / ABSOLUTE EOSINOPHIL / ABSOLUTE LYMPHOCYTE / ABSOLUTE MONOCYTE / ABSOLUTE SEGMENTED NEUTROPHIL / BASOPHIL / EOSINOPHIL / ERYTHROCYTE COUNT / HEMATOCRIT / HEMOGLOBIN / LEUKOCYTE COUNT / LYMPHOCYTE / MEAN CORPUSCULAR HEMOGLOBIN / MEAN CORPUSCULAR HEMOGLOBIN CONCENTRATION / MEAN CORPUSCULAR VOLUME / MONOCYTE / NEUTROPHIL / NUCLEATED RED BLOOD CELLS / PLATELET COUNT: tissue Blood; for ALANINE AMINOTRANSFERASE / ALBUMIN / ALKALINE PHOSPHATASE / ASPARTATE AMINOTRANSFERASE / BLOOD UREA NITROGEN / CARBON DIOXIDE / CHLORIDE / CHOLESTEROL / CREATINE PHOSPHOKINASE / CREATININE / GLUCOSE / LACTATE DEHYDROGENASE / LIPASE / PHOSPHORUS / POTASSIUM / SODIUM / TOTAL BILIRUBIN / TOTAL PROTEIN / URIC ACID: tissue Plasma
[1] = 0 mg/kg, 72 h, dose level Control, time 3 day
[2] = 0 mg/kg, 120 h, dose level Control, time 5 day
[3] = 27 mg/kg, 72 h, dose level Low, time 3 day

SMILES: Clc1ccc(CSC(Cn2ccnc2)c2ccc(Cl)cc2Cl)cc1 (centres undefined) [SULCONAZOLE]
- ABSOLUTE BASOPHIL [1]: 0 CELLS/uL
- ABSOLUTE EOSINOPHIL [1]: 42.67 CELLS/uL
- ABSOLUTE LYMPHOCYTE [1]: 10202 CELLS/uL
- ABSOLUTE MONOCYTE [1]: 261.5 CELLS/uL
- ABSOLUTE SEGMENTED NEUTROPHIL [1]: 2193.83 CELLS/uL
- BASOPHIL [1]: 0%
- EOSINOPHIL [1]: 0.33%
- ERYTHROCYTE COUNT [1]: 5.63 x10E6/uL
- HEMATOCRIT [1]: 35.35%
- HEMOGLOBIN [1]: 13.07 G/DL
- LEUKOCYTE COUNT [1]: 12.7 x10E3/uL
- LYMPHOCYTE [1]: 81.17%
- MEAN CORPUSCULAR HEMOGLOBIN [1]: 23.23 pg
- MEAN CORPUSCULAR HEMOGLOBIN CONCENTRATION [1]: 36.97 G/DL
- MEAN CORPUSCULAR VOLUME [1]: 62.82 fL
- MONOCYTE [1]: 2%
- NEUTROPHIL [1]: 16.5%
- NUCLEATED RED BLOOD CELLS [1]: 0 /100WBC
- PLATELET COUNT [1]: 1180.33 x10E3/uL
- ALANINE AMINOTRANSFERASE [1]: 48.67 u/L
- ALBUMIN [1]: 4.08 G/DL
- ALKALINE PHOSPHATASE [1]: 360.67 u/L
- ASPARTATE AMINOTRANSFERASE [1]: 85.5 u/L
- BLOOD UREA NITROGEN [1]: 17.83 mg/dL
- CARBON DIOXIDE [1]: 26.17 mmol/L
- CHLORIDE [1]: 101.83 MEQ/L
- CHOLESTEROL [1]: 71 mg/dL
- CREATINE PHOSPHOKINASE [1]: 515.17 u/L
- CREATININE [1]: 0.22 mg/dL
- GLUCOSE [1]: 192.5 mg/dL
- LACTATE DEHYDROGENASE [1]: 214.67 u/L
- LIPASE [1]: 8.5 u/L
- PHOSPHORUS [1]: 12.95 mg/dL
- POTASSIUM [1]: 6.39 MEQ/L
- SODIUM [1]: 142.38 MEQ/L
- TOTAL BILIRUBIN [1]: 0.18 mg/dL
- TOTAL PROTEIN [1]: 5.95 G/DL
- URIC ACID [1]: 1.83 mg/dL
- ABSOLUTE BASOPHIL [2]: 0 CELLS/uL
- ABSOLUTE EOSINOPHIL [2]: 188.5 CELLS/uL
- ABSOLUTE LYMPHOCYTE [2]: 12360.83 CELLS/uL
- ABSOLUTE MONOCYTE [2]: 64.33 CELLS/uL
- ABSOLUTE SEGMENTED NEUTROPHIL [2]: 1986.33 CELLS/uL
- BASOPHIL [2]: 0%
- EOSINOPHIL [2]: 1.33%
- ERYTHROCYTE COUNT [2]: 5.52 x10E6/uL
- HEMATOCRIT [2]: 35.82%
- HEMOGLOBIN [2]: 13.25 G/DL
- LEUKOCYTE COUNT [2]: 14.6 x10E3/uL
- LYMPHOCYTE [2]: 84.5%
- MEAN CORPUSCULAR HEMOGLOBIN [2]: 24.05 pg
- MEAN CORPUSCULAR HEMOGLOBIN CONCENTRATION [2]: 36.98 G/DL
- MEAN CORPUSCULAR VOLUME [2]: 64.97 fL
- MONOCYTE [2]: 0.5%
- NEUTROPHIL [2]: 13.67%
- NUCLEATED RED BLOOD CELLS [2]: 0 /100WBC
- PLATELET COUNT [2]: 1297.83 x10E3/uL
- ALANINE AMINOTRANSFERASE [2]: 51.17 u/L
- ALBUMIN [2]: 4.08 G/DL
- ALKALINE PHOSPHATASE [2]: 393.17 u/L
- ASPARTATE AMINOTRANSFERASE [2]: 111 u/L
- BLOOD UREA NITROGEN [2]: 18.17 mg/dL
- CARBON DIOXIDE [2]: 25 mmol/L
- CHLORIDE [2]: 105.17 MEQ/L
- CHOLESTEROL [2]: 65.5 mg/dL
- CREATINE PHOSPHOKINASE [2]: 911.5 u/L
- CREATININE [2]: 0.21 mg/dL
- GLUCOSE [2]: 183 mg/dL
- LACTATE DEHYDROGENASE [2]: 189 u/L
- LIPASE [2]: 8.33 u/L
- PHOSPHORUS [2]: 12.78 mg/dL
- POTASSIUM [2]: 6.05 MEQ/L
- SODIUM [2]: 144.57 MEQ/L
- TOTAL BILIRUBIN [2]: 0.25 mg/dL
- TOTAL PROTEIN [2]: 5.83 G/DL
- URIC ACID [2]: 1.58 mg/dL
- ABSOLUTE BASOPHIL [3]: 0 CELLS/uL
- ABSOLUTE EOSINOPHIL [3]: 84.67 CELLS/uL
- ABSOLUTE LYMPHOCYTE [3]: 11847.67 CELLS/uL
- ABSOLUTE MONOCYTE [3]: 101 CELLS/uL
- ABSOLUTE SEGMENTED NEUTROPHIL [3]: 2233.33 CELLS/uL
- BASOPHIL [3]: 0%
- EOSINOPHIL [3]: 0.67%
- ERYTHROCYTE COUNT [3]: 5.29 x10E6/uL
- HEMATOCRIT [3]: 32.9%
- HEMOGLOBIN [3]: 12.1 G/DL
- LEUKOCYTE COUNT [3]: 14.27 x10E3/uL
- LYMPHOCYTE [3]: 83.33%
- MEAN CORPUSCULAR HEMOGLOBIN [3]: 22.9 pg
- MEAN CORPUSCULAR HEMOGLOBIN CONCENTRATION [3]: 36.8 G/DL
- MEAN CORPUSCULAR VOLUME [3]: 62.23 fL
- MONOCYTE [3]: 0.67%
- NEUTROPHIL [3]: 15.33%
- NUCLEATED RED BLOOD CELLS [3]: 0 /100WBC
- PLATELET COUNT [3]: 979.33 x10E3/uL
- ALANINE AMINOTRANSFERASE [3]: 50.67 u/L
- ALBUMIN [3]: 4.07 G/DL
- ALKALINE PHOSPHATASE [3]: 355.67 u/L
- ASPARTATE AMINOTRANSFERASE [3]: 89 u/L
- BLOOD UREA NITROGEN [3]: 18 mg/dL
- CARBON DIOXIDE [3]: 26.33 mmol/L
- CHLORIDE [3]: 105.67 MEQ/L
- CHOLESTEROL [3]: 74.33 mg/dL
- CREATINE PHOSPHOKINASE [3]: 269.33 u/L
- CREATININE [3]: 0.22 mg/dL
- GLUCOSE [3]: 174 mg/dL
- LACTATE DEHYDROGENASE [3]: 83.33 u/L
- LIPASE [3]: 8.33 u/L
- PHOSPHORUS [3]: 14.23 mg/dL
- POTASSIUM [3]: 5.88 MEQ/L
- SODIUM [3]: 146.57 MEQ/L
- TOTAL BILIRUBIN [3]: 0.17 mg/dL
- TOTAL PROTEIN [3]: 5.83 G/DL
- URIC ACID [3]: 1.5 mg/dL
